The source of these data is PMC6368574, “Probing the Inhibition of Microtubule Affinity Regulating Kinase 4 by N-Substituted Acridones” (Scientific Reports, 2019).

For experiment [1], the target named is T1, recombinant MARK4 (Homo sapiens, UniProt Q96L34).
T1 construct: made in house; host or cells: bacterial cells (Luria-Bertani broth, IPTG induction)
T1 sequence (Q96L34 1-752): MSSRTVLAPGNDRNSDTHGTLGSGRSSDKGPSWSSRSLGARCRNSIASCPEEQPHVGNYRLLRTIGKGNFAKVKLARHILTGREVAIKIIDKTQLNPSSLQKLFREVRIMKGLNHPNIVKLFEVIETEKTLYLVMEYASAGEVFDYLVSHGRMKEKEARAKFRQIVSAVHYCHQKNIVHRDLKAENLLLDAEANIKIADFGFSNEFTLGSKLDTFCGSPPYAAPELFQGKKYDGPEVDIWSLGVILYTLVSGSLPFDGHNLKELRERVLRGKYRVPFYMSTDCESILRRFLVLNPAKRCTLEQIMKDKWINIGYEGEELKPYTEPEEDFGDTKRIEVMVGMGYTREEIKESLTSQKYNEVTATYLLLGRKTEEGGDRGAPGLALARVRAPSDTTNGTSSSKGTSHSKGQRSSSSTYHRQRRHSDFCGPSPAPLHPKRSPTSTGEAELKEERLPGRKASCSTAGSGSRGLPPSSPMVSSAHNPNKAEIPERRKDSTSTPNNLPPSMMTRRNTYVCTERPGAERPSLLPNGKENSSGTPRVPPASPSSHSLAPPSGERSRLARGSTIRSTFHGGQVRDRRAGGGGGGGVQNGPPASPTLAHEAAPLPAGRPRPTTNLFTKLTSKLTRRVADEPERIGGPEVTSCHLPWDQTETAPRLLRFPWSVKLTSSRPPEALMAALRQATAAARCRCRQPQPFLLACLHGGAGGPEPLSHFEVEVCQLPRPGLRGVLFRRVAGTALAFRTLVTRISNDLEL
Kind of experiment: Fluorescence binding (quenching, modified Stern-Volmer). How it is done:
To determine the binding affinities of the synthesized acridones with MARK4, we used fluorescence emission spectra measurements. Protein sample was excited at 280 nm and emission was measured in 300–400 nm range with increasing concentrations of each acridone derivative (0–100 µM). A significant decrease in fluorescence intensity of MARK4 with increasing concentrations of each compound was fitted in the modified Stern-Volmer equation to calculate the binding constant, Ka and the number of binding sites per protein molecule (n). All the synthesized acridones have been screened (Supplementary Fig. S6, S7 and Table S3) and those with the highest affinity have been selected (compounds 5, 7b, 7d, 7f and 7h) for further evaluation (Fig. 3). The binding constants of compound 5, 7b, 7d, 7f and 7h were estimated as 6.3 × 10^4 M^−1, 1.0 × 10^6 M^−1, 1.0 × 10^6 M^−1, 1.9 × 10^6 M^−1, and 3.1 × 10^5 M^−1, respectively (Fig. 3).
Figure 3 Fluorescence binding studies of compound 5, 7b, 7d, 7f and 7h with MARK4. (A) Fluorescence emission spectra of MARK4 (10 µM) with increasing concentrations of the respective compound (5, 7b, 7d, 7f and 7h). Excitation wavelength was fixed at 280 nm and emission was recorded in 300–400 nm range. (B) Modified Stern-Volmer plot obtained from fluorescence quenching of MARK4 by compound 5, 7b, 7d, 7f and 7h, respectively. It was used to calculate binding affinity (Ka) and number of binding sites (n).
Binding affinities of synthesized acridone derivatives with recombinant MARK4 was carried out by observing the fluorescence intensity change of emission spectrum of MARK4 by following our previously published protocol[44],[45]. Each titration of protein was performed in triplicates and the average was taken for analysis. A significant decreased in fluorescence intensity of protein with increase in the concentration of acridone derivatives were used as the criteria for deducing the binding constant (Ka) as well as number of binding sites (n) present on the protein molecule using the modified Stern-Volmer equation[46]:1 log(Fo−F)/F=logKa+nlog[L] where, Fo = Fluorescence intensity of native protein, F = Fluorescence intensity of protein in the presence of ligand, Ka = Binding constant, n = number of binding sites, L = concentration of ligand. The values for Ka and n were derived from the intercept and slope, respectively.

The target in experiment [2] is T1, recombinant MARK4. Kind of experiment: ATPase enzyme inhibition assay (Malachite Green). The experiment is classed as biochemical. As to the method:
To evaluate the inhibition activity of synthesized acridone derivatives against recombinant MARK4, ATPase enzyme inhibition assay was performed (Table S3). […] Our studies were initiated by replacing the ester group of 5 with sterically and electronically diverse amines affording the corresponding amides 7a–j, in order to establish favorable interactions with residues Ala135, Val70, Asp196 and/or Glu182. […] In this case, the docking studies indicate a better fit of 7h compared with 7g in the active site of MARK4 with a binding energy of −9.5 kcal/mol and a stronger predicted hydrogen bond with Ala135 (3.06 Å for 7h, 3.19 Å for 7g).
Enzyme activity of MARK4 was evaluated with the help of standard Malachite Green (Biomol Green reagent, Enzo Life Sciences) microtitre-plate assay as described earlier. Estimated amount of MARK4 (200 ng) and 20 µM ATP as a substrate were incubated for 10–15 min at 25 °C with increasing concentrations (0–20 µM) of synthesized acridone derivatives, in 20 mM Tris buffer, pH 8.0. Reaction was terminated by the adding 100 µl of Biomol Green reagent and absorbance of final reaction products was recorded at 620 nm in a multiplate ELSIA reader (BioRad). In order to quantify the hydrolyzed phosphate, inorganic phosphate standard curve were prepared from the phosphate standard solutions as supplied by the manufacturer (Biomol Green reagent, Enzo Life Sciences). All data points represent triplicate measurements from at least three independent experiments.

[3] abbreviates: Table S3, fluorescence binding, read-out: Binding affinity (Ka) (converted).
Where [4] appears, read: Table 1, from enzyme inhibition, read-out: IC50, (µM), MARK4.
[5] abbreviates: ATPase inhibition, 20 µM ATP, read-out: IC50 against MARK4.

Like-named read-outs stand apart in the source and are kept apart here.

As for `Cc1ccc(NC(=O)Cn2c3ccccc3c(=O)c3cc(C)ccc32)cc1` [Compound 7f, 2-(2-Methyl-9-oxoacridin-10(9H)-yl)-N-(p-tolyl)acetamide], on recombinant MARK4 [1] (setting [3]), the Kd was 0.526 µM. Also, the IC50 at recombinant MARK4 [2] (setting [4]) was 4.5 ± 0.52 µM.

As for `COc1ccccc1NC(=O)Cn1c2ccccc2c(=O)c2cc(C)ccc21` [Compound 7h, N-(2-methoxyphenyl)-2-(2-methyl-9-oxoacridin-10(9H)-yl)acetamide], the Kd on recombinant MARK4 [1] (setting [3]) is 3.23 µM. The IC50 at recombinant MARK4 [2] (setting [5]) stood at 12.1 ± 1.1 µM.

In the case of `COC(=O)Cn1c2ccccc2c(=O)c2cc(C)ccc21` [Compound 5, Methyl 2-(2-methyl-9-oxoacridin-10(9H)-yl)acetate], the Kd at recombinant MARK4 [1] (fluorescence quenching, MARK4 10 µM, excitation 280 nm, read-out: binding constant, Ka (converted)) is 15.9 µM. In addition, the IC50 on recombinant MARK4 [2] (setting [5]) turned out to be 14.1 ± 1.02 µM.

As to `Cc1ccc2c(c1)c(=O)c1ccccc1n2CC(=O)NCc1ccccc1` [Compound 7b, N-benzyl-2-(2-methyl-9-oxoacridin-10(9H)-yl)acetamide], the Kd on recombinant MARK4 [1] (setting [3]) is 1 µM. Moreover, the IC50 on recombinant MARK4 [2] (setting [4]) was 1.8 ± 0.04 µM.

As for `COc1ccc(CNC(=O)Cn2c3ccccc3c(=O)c3cc(C)ccc32)cc1` [Compound 7d, N-(4-methoxybenzyl)-2-(2-methyl-9-oxoacridin-10(9H)-yl)acetamide], on recombinant MARK4 [1] (setting [3]), the Kd is 1 µM. The IC50 at recombinant MARK4 [2] (setting [4]) was determined as 2.2 ± 0.05 µM.
